Measured values as given in article PMC9631755, “Development of AB3-Type Novel Phthalocyanine and Porphyrin Photosensitizers Conjugated with Triphenylphosphonium for Higher Photodynamic Efficacy” (ACS Omega, 2022).
Read-outs that look alike come from different tables or passages of the source.

Experiments:
[1] = Fluorescence quantum yield, comparative method; type: physicochemical; conditions: THF
Method: Excitation spectra in the Q-band region have been obtained by monitoring the fluorescence emission spectra at the indicated wavelength of porphyrins and phthalocyanine compounds. The fluorescence quantum yields (ΦF) of all structures were determined in THF, using a comparative method. The values were 0.009, 0.14, 0.13, and 0.13, for LuPcPox(OAc), AB3TPP-Pc, AB3TPP-Por-C4, and AB3TPP-Por-C6, respectively. The lowest ΦF value 0.009 belongs to LuPcPox(OAc) and is close to the value (0.004) obtained in DMSO in our previous study.[24] This could be the result of the higher atomic number of lutetium in the cavity of phthalocyanine which may facilitate intersystem crossing to its excited triplet state after excitation. However, the difference and purpose of this study from our previous work are to examine whether there will be a change in the fluorescence property with the addition of the mitochondria targeting the TPP group to the structure. We achieved this goal. The ΦF value of AB3TPP-Pc was 0.14, although it was lower than the reference molecule (ZnPc ΦF= 0.25),[43] and the presence of the TPP group on the structure increased the fluorescence efficiency approximately 15 times that of LuPcPox(OAc) ΦF = 0.009. […] The normalized absorption, excitation, and emission spectra for all compounds are shown in Figure 3, and ΦF values are given in Table 2.

[2] = system: A549 cells; test: MTT cell viability of A549 cells, dark and 660 nm light irradiation; type: cell-based; conditions: for IC50: 24 h
Method: (§1) A549 and BEAS-2B cells were obtained from ATCC with reference numbers CCL-185 and CRL-9609, respectively. A549 cells were cultured in DMEM (with 2 mM L-glutamine, Gibco, United States), while RPMI 1640 (with 2 mM L-glutamine, Gibco, United States) was used for BEAS-2B cells. Both media were supplemented with 10% fetal bovine serum (FBS) (Gibco, United States), and cells were cultured in an incubator with a humidified atmosphere of 5% CO2 at 37 °C.[24]
(§2) For the evaluation of cytotoxic activity, an MTT assay was employed. Cells were seeded 1 day prior to treatment in 96-well plates at a concentration of 20,000 cells/mL. Followed by overnight incubation, the cells were exposed to LuPcPox(OAc), AB3TPP-Pc, AB3TPP-Por-C4, PP-Por-C6, H2TPP, and ZnPc molecules. All molecules were dispersed in DMSO. The working concentrations of the molecules contain <0.1% (v/v) of DMSO. Time-point assays were performed after 24 and 48 h. The final concentration of MTT was 0.5 mg/mL, and after 3 h incubation, absorbances were measured at 545 nm. The absorbance of the blank group which was the samples containing media with 10% FBS was subtracted from the measurements and cell viability was determined by the following formula.[52] The control group was composed of nontreated cells. Cell viability (%) = (absorbance value of sample/absorbance value of control) × 100.
(§3) The cells seeded at a concentration of 20,000 cells/mL in the 96-well plates were irradiated at 660 nm using an LED light array producing a flux of 0.036 J cm^–2 s^–1 (0.036 W/cm^2). In order to determine the cytotoxic effects of Pcs under light, one group of each cell line was exposed to an LED array for 30 min at room temperature and then returned to the incubator, while another group was incubated in the dark.[24] The delivered red photons on the cells were measured by a calibrated PAR meter (Apogee SQ-520). The temperature of the chamber under continuous light flux was monitored synchronously for ensuring the stability of the conditions.[53]
(§4) The cells were seeded at a concentration of 20,000 cells/mL on 96-well plates and incubated for 24 h. The Pcs were added in 0.1, 2.5, 5, 10, 25, and 50 μM concentrations for evaluating the toxicity with/without light except for LuPcPox(OAc). The LuPcPox(OAc) was added into the wells as 0.01, 0.03, 0.09, 0.25, 0.50, and 1 μM concentration because a concentration over 1.0 μM kills the cells immediately. The Pcs in the cell media were discarded, and a fresh medium was added to the cells to remove noninternalized molecules. The viability of the cells was recorded for 24 and 48 h after the addition of Pcs. The cells were irradiated for 30 min.
(§5) IC50 values of the Pcs were determined by fitting the cell’s viability curve acquired from the spectroscopic data. All the values were obtained by using Origin Software (Figure 7).

[3] = Singlet-oxygen quantum yield, direct method (phosphorescence); type: physicochemical; conditions: for ΦΔ singlet-oxygen quantum yield: THF
Method: For PDT, tumor cells are killed by ROS that is produced by a photosensitizer; thus, the production of ^1O2 by the photosensitizer plays a vitally important role in PDT.[46] To evaluate the photosensitizing properties of novel macrocyclic structures, singlet-oxygen quantum yields have been evaluated by a direct method in THF. Singlet-oxygen phosphorescence spectra for all compounds excited with a xenon-arc source at their respective absorption maxima were recorded by a near-IR-sensitive detector. ZnPc and H2TPP were used as the standard for phthalocyanine and porphyrin derivatives that have singlet oxygen yields of 0.53[47] and 0.58[33],[34] in THF, respectively. Singlet-oxygen phosphorescence spectra of Pc and Por. derivatives in THF at equal absorbance (0.23) were obtained to directly determine ΦΔ (Figures S20 and S21). […] Apparently, AB3TPP-Pc is almost three times as efficient as LuPcPox(OAc) in producing singlet oxygen, matching well with our proposal that the TPP-conjugated phthalocyanine could serve as an ideal candidate for mitochondrial-targeted PDT reagent.

[4] = system: BEAS-2B cells; test: MTT cell viability of BEAS-2B cells, dark and 660 nm light irradiation; type: cell-based
Method: as §1, §2, §3, §4, §5

[5] = Fluorescence lifetime, TCSPC; type: physicochemical; conditions: THF, mono-exponential decay
Method: Luminescence lifetime measurements were performed on a fluorescence spectroscopy Fluorolog-3 (HORIBA Jobin Yvon) system in the single-photon counting (TCSPC) mode. A NanoLED light source (HORIBA Jobin Yvon) of λmax 390 nm was used for 395 nm excitation. All measurements were carried out in 0.2 ab. solutions in THF at room temperature. […] AB3TPP-Pc and LuPcPox(OAc) show a biexponential decay. The short-lived species are due to component features τf of 2.54 ns (responsible for 35.78%) and τf of 2.14 ns (responsible for 32.47%) photons emitted by AB3TPP-Pc and LuPcPox(OAc), respectively. The longer lifetime has a τf of 4.77 ns (assume 64.22%) and 3.11 ns (assume 67.53%) of emission for AB3TPP-Pc and LuPcPox(OAc), respectively.

[6] = UV-vis absorption, extinction coefficient at 660 nm; type: physicochemical; conditions: 2 × 10^–6 M in THF
Method: In our study, the Lambert–Beer law indicating a linear relationship between absorbance and concentrations was obeyed for all porphyrin and phthalocyanine compounds in dimethylsulfoxide (DMSO) in the whole 2–8 μM concentration measurement range (Figure 2). The UV–vis spectra of macrocyclic compounds were recorded in both DMSO and tetrahydrofuran (THF), solvents in which all compounds are soluble (Figures S13–S19). […] This diverse absorption behavior of complexes comes from their different subunits which are isoindoles and pyrroles in the skeleton of macrocycles for phthalocyanine and porphyrin, respectively.[40],[41]Table 1 summarizes the wavelengths and associated extinction coefficients in Q and Soret (B) bands in DMSO.

[7] = reference substance; cited from earlier work
[8] = THF, standard; cited from earlier work
[9] = Homo sapiens, A549, light (660 nm, 30 min)
[10] = Homo sapiens, dark, 24 h, read-out: IC50
[11] = Homo sapiens, light (660 nm, 30 min), 24 h, read-out: IC50

| Compound | ΦF fluorescence quantum yield [1] | IC50 ([2]; Homo sapiens, A549, dark) | IC50 [2, 9] | ΦΔ singlet-oxygen quantum yield [3] | τF fluorescence lifetime [5] | log ε (660 nm) [6] | IC50 [4, 10] | IC50 [4, 11] | further results |
| --- | --- | --- | --- | --- | --- | --- | --- | --- | --- |
| COc1ccc(-c2c3nc(c(-c4ccc(OC)cc4)c4ccc([nH]4)c(-c4ccc(OCCCC[P+](c5ccccc5)(c5ccccc5)c5ccccc5)cc4)c4nc(c(-c5ccc(OC)cc5)c5ccc2[nH]5)C=C4)C=C3)cc1 [AB3TPP-Por-C4] | 0.13 | > 50 µM | 10.3 µM | 0.57 | 8.87 ns | 3.43 | 11.5 µM | < 0.1 µM | increase of toxicity under light compared to the dark (from IC50) ([2]; A549): 2 fold; cytotoxicity (in words) ([2]; A549, dark, up to 48 h): noncytotoxic |
| COc1ccc(-c2c3nc(c(-c4ccc(OC)cc4)c4ccc([nH]4)c(-c4ccc(OCCCCCC[P+](c5ccccc5)(c5ccccc5)c5ccccc5)cc4)c4nc(c(-c5ccc(OC)cc5)c5ccc2[nH]5)C=C4)C=C3)cc1 [AB3TPP-Por-C6] | 0.13 | 24.9 µM | 3.6 µM | 0.58 | 8.91 ns | 3.56 | 10.3 µM | < 0.1 µM | reduction of cell viability compared to AB3Por-C4 (phototoxicity) ([2]; A549): 2 fold; reduction of cell viability compared to H2TPP (phototoxicity) ([2]; A549): 5 fold; critical concentration (decrease in viability) ([2]; A549, after light irradiation, 24 and 48 h): 2.5 µM |
| COCCOCCOCCSc1cc2c(cc1SCCOCCOCCOC)-c1nc-2nc2[nH]c(nc3nc(nc4[nH]c(n1)c1cc(SCCOCCOCCOC)c(SCCOCCOCCOC)cc41)-c1cc(SCCOCCOCCOC)c(SCCOCCOCCOC)cc1-3)c1cc(SCCCCCCOCCCCCC[P+](c3ccccc3)(c3ccccc3)c3ccccc3)ccc21 [AB3TPP-Pc] | 0.14 | – | – | 0.75 | – | 4.18 | – | – | increase of fluorescence efficiency over LuPcPox(OAc) [1]: approximately 15 times; singlet oxygen-producing capacity compared to LuPcPox(OAc) [3]: ~3 times; singlet oxygen-producing capacity, more efficient with respect to ZnPc [3]: 50%; cytotoxic concentration ([4]; dark, 24 and 48 h): < 6 µM; IC50 ([4]; light, 48 h, read-out: IC50 (cytotoxic concentration)): 2.4 µM |

Further lines, with some results ahead:

| ΦF fluorescence quantum yield [1] | IC50 ([2]; Homo sapiens, A549, dark) | IC50 [2, 9] | ΦΔ singlet-oxygen quantum yield [3] | τF fluorescence lifetime [5] | log ε (660 nm) [6] | Compound | IC50 [4, 10] | IC50 [4, 11] | further results |
| --- | --- | --- | --- | --- | --- | --- | --- | --- | --- |
| 0.13 | – | – | 0.58 | 10.3 ns | – | Tetraphenylporphyrin [H2TPP, reference compound] | – | – | ΦF fluorescence quantum yield [7]: 0.13; IC50 ([2]; A549, dark): 19.7 µM; IC50 ([2]; A549, light (660 nm, 30 min)): 19.7 µM; IC50 ([4]; dark, 24 h, read-out: IC50): 12.1 µM; IC50 ([4]; light (660 nm, 30 min), 24 h, read-out: IC50): 6.8 µM; ΦΔ singlet-oxygen quantum yield [8]: 0.58 |
| – | – | – | – | 2.72 ns | – | [Zn+2].c1ccc2c(c1)-c1nc-2nc2[n-]c(nc3nc([n-]c4nc(n1)-c1ccccc1-4)-c1ccccc1-3)c1ccccc21 [ZnPc, zinc (II)phthalocyanine, reference compound] | – | – | – |
